In patent publication US5674979A, “Agent for inhibiting symmetrical proteins, in particular enzymes” (priority 1989, dated 1997):
Read-outs that look alike come from different tables or passages of the source.

Key:
HIV-1 [1] = settings: H9 cells
Experimental: Compounds (a), (b), (c), (d) were tested in the molarity range from 0.1 μM to 1000 μM. Infectivity tests were carried out as follows: an HIV-1 suspension containing 10^2 infectious units was absorbed on to 5×10^6 H9 cells in a volume of 1 ml for 2 hours at 4° C. After this time, 9 ml of tissue culture medium with the required inhibitor concentration was added. The medium was exchanged with fresh medium plus inhibitor daily. Two control cultures were also prepared, one without inhibitor to determine the normal virus replication rate, the other containing inhibitor but no virus, to determine whether the substances were cytotoxic for H9 cells. […] The amount of virus antigen produced by the infected cells was measured daily using Elisa for eight days, indicating the amount of HIV-1 antigen in the tissue culture medium. After this, the cells were pelleted, washed in medium without inhibitor, and further incubated in inhibitor-less medium. The antigen production was measured on days 9 and 12 (ie 1 and […] after removal of the inhibitor). Virus production was also measured on days 7, 8, 9, and 12 by determining the amount of reverse transcriptase in the supernatant of the cell medium.

HIV-1 [2] = system: HIV-1
Experimental: Infectivity tests were carried out as follows: an HIV-1 suspension containing 10^2 infectious units was absorbed on to 5×10^6 H9 cells in a volume of 1 ml for 2 hours at 4° C. After this time, 9 ml of tissue culture medium with the required inhibitor concentration was added. The medium was exchanged with fresh medium plus inhibitor daily. Two control cultures were also prepared, one without inhibitor to determine the normal virus replication rate, the other containing inhibitor but no virus, to determine whether the substances were cytotoxic for H9 cells. […] The amount of virus antigen produced by the infected cells was measured daily using Elisa for eight days, indicating the amount of HIV-1 antigen in the tissue culture medium. After this, the cells were pelleted, washed in medium without inhibitor, and further incubated in inhibitor-less medium. The antigen production was measured on days 9 and 12 (ie 1 and 3 days after removal of the inhibitor). Virus production was also measured on days 7, 8, 9, and 12 by determining the amount of reverse transcriptase in the supernatant of the cell medium.

[3] = 0,1 μM, day 9 post infection, no inhibitor (after removal)
[4] = 0,1 μM, day 12 post infection, no inhibitor (after removal)
[5] = 1 μM, day 9 post infection, no inhibitor (after removal)
[6] = 1 μM, day 12 post infection, no inhibitor (after removal)
[7] = 10 μM, day 9 post infection, no inhibitor (after removal)
[8] = 10 μM, day 12 post infection, no inhibitor (after removal)
[9] = 100 μM, day 9 post infection, no inhibitor (after removal)
[10] = 100 μM, day 12 post infection, no inhibitor (after removal)
[11] = 1000 μM, day 9 post infection, no inhibitor (after removal)
[12] = 1000 μM, day 12 post infection, no inhibitor (after removal)

Compound: CC(C)C[C@H](NC(=O)OC(C)(C)C)C(=O)NCC(O)CC(=O)O (stereo partly drawn) [B, t-BOC-L-Leu-NH--CH2 --CHOH--CH2 --COOH]
- HIV-1 antigen production as measured in antigen capture ELISA (HIV-1 [1]; 0,1 μM, day 1 post infection): 0,061 o. D.
- HIV-1 antigen production as measured in antigen capture ELISA (HIV-1 [1]; 0,1 μM, day 2 post infection): 0,063 o. D.
- HIV-1 antigen production as measured in antigen capture ELISA (HIV-1 [1]; 0,1 μM, day 3 post infection): 0,039 o. D.
- HIV-1 antigen production as measured in antigen capture ELISA (HIV-1 [1]; 0,1 μM, day 4 post infection): 0,063 o. D.
- HIV-1 antigen production as measured in antigen capture ELISA (HIV-1 [1]; 0,1 μM, day 5 post infection): 0,055 o. D.
- HIV-1 antigen production as measured in antigen capture ELISA (HIV-1 [1]; 0,1 μM, day 6 post infection): 0,149 o. D.
- HIV-1 antigen production as measured in antigen capture ELISA (HIV-1 [1]; 0,1 μM, day 7 post infection): 0,389 o. D.
- HIV-1 antigen production as measured in antigen capture ELISA (HIV-1 [1]; 0,1 μM, day 8 post infection): 0,232 o. D.
- HIV-1 antigen production as measured in antigen capture ELISA (HIV-1 [1]; [3]): 0,700 o. D.
- HIV-1 antigen production as measured in antigen capture ELISA (HIV-1 [1]; [4]): 1,047 o. D.
- HIV-1 antigen production as measured in antigen capture ELISA (HIV-1 [1]; 1 μM, day 1 post infection): 0,063 o. D.
- HIV-1 antigen production as measured in antigen capture ELISA (HIV-1 [1]; 1 μM, day 2 post infection): 0,060 o. D.
- HIV-1 antigen production as measured in antigen capture ELISA (HIV-1 [1]; 1 μM, day 3 post infection): 0,061 o. D.
- HIV-1 antigen production as measured in antigen capture ELISA (HIV-1 [1]; 1 μM, day 4 post infection): 0,050 o. D.
- HIV-1 antigen production as measured in antigen capture ELISA (HIV-1 [1]; 1 μM, day 5 post infection): 0,052 o. D.
- HIV-1 antigen production as measured in antigen capture ELISA (HIV-1 [1]; 1 μM, day 6 post infection): 0,105 o. D.
- HIV-1 antigen production as measured in antigen capture ELISA (HIV-1 [1]; 1 μM, day 7 post infection): 0,186 o. D.
- HIV-1 antigen production as measured in antigen capture ELISA (HIV-1 [1]; 1 μM, day 8 post infection): 0,237 o. D.
- HIV-1 antigen production as measured in antigen capture ELISA (HIV-1 [1]; [5]): 0,745 o. D.
- HIV-1 antigen production as measured in antigen capture ELISA (HIV-1 [1]; [6]): 0,970 o. D.
- HIV-1 antigen production as measured in antigen capture ELISA (HIV-1 [1]; 10 μM, day 1 post infection): 0,063 o. D.
- HIV-1 antigen production as measured in antigen capture ELISA (HIV-1 [1]; 10 μM, day 2 post infection): 0,060 o. D.
- HIV-1 antigen production as measured in antigen capture ELISA (HIV-1 [1]; 10 μM, day 3 post infection): 0,059 o. D.
- HIV-1 antigen production as measured in antigen capture ELISA (HIV-1 [1]; 10 μM, day 4 post infection): 0,047 o. D.
- HIV-1 antigen production as measured in antigen capture ELISA (HIV-1 [1]; 10 μM, day 5 post infection): 0,055 o. D.
- HIV-1 antigen production as measured in antigen capture ELISA (HIV-1 [1]; 10 μM, day 6 post infection): 0,087 o. D.
- HIV-1 antigen production as measured in antigen capture ELISA (HIV-1 [1]; 10 μM, day 7 post infection): 0,303 o. D.
- HIV-1 antigen production as measured in antigen capture ELISA (HIV-1 [1]; 10 μM, day 8 post infection): 0,342 o. D.
- HIV-1 antigen production as measured in antigen capture ELISA (HIV-1 [1]; [7]): 0,645 o. D.
- HIV-1 antigen production as measured in antigen capture ELISA (HIV-1 [1]; [8]): 1,038 o. D.
- HIV-1 antigen production as measured in antigen capture ELISA (HIV-1 [1]; 100 μM, day 1 post infection): 0,068 o. D.
- HIV-1 antigen production as measured in antigen capture ELISA (HIV-1 [1]; 100 μM, day 2 post infection): 0,070 o. D.
- HIV-1 antigen production as measured in antigen capture ELISA (HIV-1 [1]; 100 μM, day 3 post infection): 0,063 o. D.
- HIV-1 antigen production as measured in antigen capture ELISA (HIV-1 [1]; 100 μM, day 4 post infection): 0,052 o. D.
- HIV-1 antigen production as measured in antigen capture ELISA (HIV-1 [1]; 100 μM, day 5 post infection): 0,052 o. D.
- HIV-1 antigen production as measured in antigen capture ELISA (HIV-1 [1]; 100 μM, day 6 post infection): 0,099 o. D.
- HIV-1 antigen production as measured in antigen capture ELISA (HIV-1 [1]; 100 μM, day 7 post infection): 0,359 o. D.
- HIV-1 antigen production as measured in antigen capture ELISA (HIV-1 [1]; 100 μM, day 8 post infection): 0,260 o. D.
- HIV-1 antigen production as measured in antigen capture ELISA (HIV-1 [1]; [9]): 0,890 o. D.
- HIV-1 antigen production as measured in antigen capture ELISA (HIV-1 [1]; [10]): 0,960 o. D.
- HIV-1 antigen production as measured in antigen capture ELISA (HIV-1 [1]; 1000 μM, day 1 post infection): 0,076 o. D.
- HIV-1 antigen production as measured in antigen capture ELISA (HIV-1 [1]; 1000 μM, day 2 post infection): 0,068 o. D.
- HIV-1 antigen production as measured in antigen capture ELISA (HIV-1 [1]; 1000 μM, day 3 post infection): 0,050 o. D.
- HIV-1 antigen production as measured in antigen capture ELISA (HIV-1 [1]; 1000 μM, day 4 post infection): 0,050 o. D.
- HIV-1 antigen production as measured in antigen capture ELISA (HIV-1 [1]; 1000 μM, day 5 post infection): 0,063 o. D.
- HIV-1 antigen production as measured in antigen capture ELISA (HIV-1 [1]; 1000 μM, day 6 post infection): 0,075 o. D.
- HIV-1 antigen production as measured in antigen capture ELISA (HIV-1 [1]; 1000 μM, day 7 post infection): 0,279 o. D.
- HIV-1 antigen production as measured in antigen capture ELISA (HIV-1 [1]; 1000 μM, day 8 post infection): 0,577 o. D.
- HIV-1 antigen production as measured in antigen capture ELISA (HIV-1 [1]; [11]): 0,811 o. D.
- HIV-1 antigen production as measured in antigen capture ELISA (HIV-1 [1]; [12]): 1,050 o. D.
- Reverse Transkriptase Determination (HIV-1 [2]; 0,1 μM, day 7 post infection): 2099 epm/ml
- Reverse Transkriptase Determination (HIV-1 [2]; 0,1 μM, day 8 post infection): 3091 epm/ml
- Reverse Transkriptase Determination (HIV-1 [2]; [3]): 6180 epm/ml
- Reverse Transkriptase Determination (HIV-1 [2]; [4]): 106830 epm/ml
- Reverse Transkriptase Determination (HIV-1 [2]; 1 μM, day 7 post infection): 6105 epm/ml
- Reverse Transkriptase Determination (HIV-1 [2]; 1 μM, day 8 post infection): 3006 epm/ml
- Reverse Transkriptase Determination (HIV-1 [2]; [5]): 8474 epm/ml
- Reverse Transkriptase Determination (HIV-1 [2]; [6]): 92020 epm/ml
- Reverse Transkriptase Determination (HIV-1 [2]; 10 μM, day 7 post infection): 4614 epm/ml
- Reverse Transkriptase Determination (HIV-1 [2]; 10 μM, day 8 post infection): 4188 epm/ml
- Reverse Transkriptase Determination (HIV-1 [2]; [7]): 7187 epm/ml
- Reverse Transkriptase Determination (HIV-1 [2]; [8]): 164920 epm/ml
- Reverse Transkriptase Determination (HIV-1 [2]; 100 μM, day 7 post infection): 4033 epm/ml
- Reverse Transkriptase Determination (HIV-1 [2]; 100 μM, day 8 post infection): 4418 epm/ml
- Reverse Transkriptase Determination (HIV-1 [2]; [9]): 6575 epm/ml
- Reverse Transkriptase Determination (HIV-1 [2]; [10]): 125290 epm/ml
- Reverse Transkriptase Determination (HIV-1 [2]; 1000 μM, day 7 post infection): 3441 epm/ml
- Reverse Transkriptase Determination (HIV-1 [2]; 1000 μM, day 8 post infection): 3159 epm/ml
- Reverse Transkriptase Determination (HIV-1 [2]; [11]): 5503 epm/ml
- Reverse Transkriptase Determination (HIV-1 [2]; [12]): 149020 epm/ml
